Where two headings read alike, the source gives them in different places.
Assays:
Assay in all cases: HotSpot kinase profiling
Format in all cases: biochemical
[1] = target: T1, LKB1 (Homo sapiens, UniProt Q15831)
T1 construct: purchased Reaction Biology Corp
T1 sequence (Q15831 1-433): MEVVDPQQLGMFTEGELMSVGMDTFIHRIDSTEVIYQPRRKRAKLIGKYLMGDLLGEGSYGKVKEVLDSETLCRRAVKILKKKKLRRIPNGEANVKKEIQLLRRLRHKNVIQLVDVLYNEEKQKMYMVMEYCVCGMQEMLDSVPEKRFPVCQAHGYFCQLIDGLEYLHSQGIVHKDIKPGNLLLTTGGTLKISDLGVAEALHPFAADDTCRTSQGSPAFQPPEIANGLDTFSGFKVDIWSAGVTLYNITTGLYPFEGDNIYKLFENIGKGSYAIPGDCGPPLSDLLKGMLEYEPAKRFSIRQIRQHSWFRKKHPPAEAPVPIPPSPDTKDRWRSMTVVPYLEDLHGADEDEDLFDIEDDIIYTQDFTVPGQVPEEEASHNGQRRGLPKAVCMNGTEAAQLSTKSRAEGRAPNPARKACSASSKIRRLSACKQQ
T1 sequence (Q7RTN6 1-431 partner): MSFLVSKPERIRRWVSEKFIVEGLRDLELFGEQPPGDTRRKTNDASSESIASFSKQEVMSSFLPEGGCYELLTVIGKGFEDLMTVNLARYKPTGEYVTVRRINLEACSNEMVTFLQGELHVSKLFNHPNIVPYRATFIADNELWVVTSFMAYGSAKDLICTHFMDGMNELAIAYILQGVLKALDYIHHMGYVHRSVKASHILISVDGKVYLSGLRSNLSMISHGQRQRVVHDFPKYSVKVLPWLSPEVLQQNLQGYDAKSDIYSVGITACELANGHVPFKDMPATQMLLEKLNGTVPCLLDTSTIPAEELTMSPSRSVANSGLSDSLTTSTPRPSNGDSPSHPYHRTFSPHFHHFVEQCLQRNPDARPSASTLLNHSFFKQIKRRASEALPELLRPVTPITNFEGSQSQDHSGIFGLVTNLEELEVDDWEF
T1 sequence (Q9Y376 1-341 partner): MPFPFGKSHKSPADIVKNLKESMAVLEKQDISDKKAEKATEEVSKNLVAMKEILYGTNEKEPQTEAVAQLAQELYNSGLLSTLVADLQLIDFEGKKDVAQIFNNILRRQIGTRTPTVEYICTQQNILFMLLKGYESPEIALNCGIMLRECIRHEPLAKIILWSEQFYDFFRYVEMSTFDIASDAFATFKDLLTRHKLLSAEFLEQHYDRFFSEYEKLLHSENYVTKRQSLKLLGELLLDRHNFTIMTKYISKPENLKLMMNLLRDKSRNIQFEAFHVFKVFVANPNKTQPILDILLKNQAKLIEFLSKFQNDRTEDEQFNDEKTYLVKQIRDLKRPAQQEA
Method in brief: (§1)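 Radio-isotope P81 filtration format. Substrate + required cofactors in reaction buffer, kinase added, 2 h RT. Stop, wash with 0.1% phosphoric acid, detect. % inhibition vs DMSO; mean of duplicates where repeated.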

[2] = target: T2, MLCK2/MYLK2 (Homo sapiens, UniProt Q9H1R3)
T2 construct: purchased Reaction Biology Corp
Method in brief: as §1

[3] = target: T3, EPHA4 (Homo sapiens, UniProt P54764)
T3 construct: purchased Reaction Biology Corp
Method in brief: as §1

[4] = target: T4, ERK5/MAPK7 (Homo sapiens, UniProt Q13164)
T4 construct: purchased Reaction Biology Corp
Method in brief: as §1

[5] = target: T5, ROCK2 (Homo sapiens, UniProt O75116)
T5 construct: purchased Reaction Biology Corp
Method in brief: as §1

[6] = target: T6, JNK3 (Homo sapiens, UniProt P53779)
T6 construct: purchased Reaction Biology Corp
Method in brief: as §1

[7] = target: T7, MAPKAPK5/PRAK (Homo sapiens, UniProt Q8IW41)
T7 construct: purchased Reaction Biology Corp
T7 sequence (Q8IW41 1-473): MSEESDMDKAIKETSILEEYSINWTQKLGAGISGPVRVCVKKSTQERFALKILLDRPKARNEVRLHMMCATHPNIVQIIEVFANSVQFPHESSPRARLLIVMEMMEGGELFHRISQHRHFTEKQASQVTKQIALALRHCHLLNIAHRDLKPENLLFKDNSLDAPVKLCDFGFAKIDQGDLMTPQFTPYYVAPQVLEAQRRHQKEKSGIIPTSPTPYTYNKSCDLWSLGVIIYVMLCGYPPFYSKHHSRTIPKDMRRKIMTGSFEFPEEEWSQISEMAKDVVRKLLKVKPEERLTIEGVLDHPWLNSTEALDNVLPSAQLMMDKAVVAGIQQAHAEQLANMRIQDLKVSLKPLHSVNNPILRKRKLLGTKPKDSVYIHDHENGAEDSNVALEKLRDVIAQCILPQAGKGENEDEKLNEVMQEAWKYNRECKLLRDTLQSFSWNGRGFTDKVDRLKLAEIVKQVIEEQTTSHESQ
Method in brief: as §1

[8] = target: T8, CAMKK1 (Homo sapiens, UniProt Q8N5S9)
T8 construct: purchased Reaction Biology Corp
Method in brief: as §1

[9] = target: T9, CK1epsilon (Homo sapiens, UniProt P49674)
T9 construct: purchased Reaction Biology Corp
Method in brief: as §1

[10] = read-out: % Enzyme Activity (relative to DMSO controls) Run 1
[11] = read-out: % Enzyme Activity (relative to DMSO controls) Run 2

T9 sequence (P49674 whole entry): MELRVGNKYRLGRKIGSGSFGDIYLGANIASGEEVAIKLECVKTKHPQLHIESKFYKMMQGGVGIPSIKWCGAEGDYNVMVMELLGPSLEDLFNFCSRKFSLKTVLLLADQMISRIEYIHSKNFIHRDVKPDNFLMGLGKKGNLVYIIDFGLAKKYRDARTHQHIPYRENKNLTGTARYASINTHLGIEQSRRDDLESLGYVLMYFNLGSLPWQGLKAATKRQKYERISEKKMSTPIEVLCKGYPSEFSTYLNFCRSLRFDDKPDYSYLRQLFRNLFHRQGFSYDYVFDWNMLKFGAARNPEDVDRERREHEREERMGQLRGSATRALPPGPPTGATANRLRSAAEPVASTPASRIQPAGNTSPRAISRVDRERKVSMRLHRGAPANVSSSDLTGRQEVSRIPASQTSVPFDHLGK
T5 sequence (O75116 whole entry): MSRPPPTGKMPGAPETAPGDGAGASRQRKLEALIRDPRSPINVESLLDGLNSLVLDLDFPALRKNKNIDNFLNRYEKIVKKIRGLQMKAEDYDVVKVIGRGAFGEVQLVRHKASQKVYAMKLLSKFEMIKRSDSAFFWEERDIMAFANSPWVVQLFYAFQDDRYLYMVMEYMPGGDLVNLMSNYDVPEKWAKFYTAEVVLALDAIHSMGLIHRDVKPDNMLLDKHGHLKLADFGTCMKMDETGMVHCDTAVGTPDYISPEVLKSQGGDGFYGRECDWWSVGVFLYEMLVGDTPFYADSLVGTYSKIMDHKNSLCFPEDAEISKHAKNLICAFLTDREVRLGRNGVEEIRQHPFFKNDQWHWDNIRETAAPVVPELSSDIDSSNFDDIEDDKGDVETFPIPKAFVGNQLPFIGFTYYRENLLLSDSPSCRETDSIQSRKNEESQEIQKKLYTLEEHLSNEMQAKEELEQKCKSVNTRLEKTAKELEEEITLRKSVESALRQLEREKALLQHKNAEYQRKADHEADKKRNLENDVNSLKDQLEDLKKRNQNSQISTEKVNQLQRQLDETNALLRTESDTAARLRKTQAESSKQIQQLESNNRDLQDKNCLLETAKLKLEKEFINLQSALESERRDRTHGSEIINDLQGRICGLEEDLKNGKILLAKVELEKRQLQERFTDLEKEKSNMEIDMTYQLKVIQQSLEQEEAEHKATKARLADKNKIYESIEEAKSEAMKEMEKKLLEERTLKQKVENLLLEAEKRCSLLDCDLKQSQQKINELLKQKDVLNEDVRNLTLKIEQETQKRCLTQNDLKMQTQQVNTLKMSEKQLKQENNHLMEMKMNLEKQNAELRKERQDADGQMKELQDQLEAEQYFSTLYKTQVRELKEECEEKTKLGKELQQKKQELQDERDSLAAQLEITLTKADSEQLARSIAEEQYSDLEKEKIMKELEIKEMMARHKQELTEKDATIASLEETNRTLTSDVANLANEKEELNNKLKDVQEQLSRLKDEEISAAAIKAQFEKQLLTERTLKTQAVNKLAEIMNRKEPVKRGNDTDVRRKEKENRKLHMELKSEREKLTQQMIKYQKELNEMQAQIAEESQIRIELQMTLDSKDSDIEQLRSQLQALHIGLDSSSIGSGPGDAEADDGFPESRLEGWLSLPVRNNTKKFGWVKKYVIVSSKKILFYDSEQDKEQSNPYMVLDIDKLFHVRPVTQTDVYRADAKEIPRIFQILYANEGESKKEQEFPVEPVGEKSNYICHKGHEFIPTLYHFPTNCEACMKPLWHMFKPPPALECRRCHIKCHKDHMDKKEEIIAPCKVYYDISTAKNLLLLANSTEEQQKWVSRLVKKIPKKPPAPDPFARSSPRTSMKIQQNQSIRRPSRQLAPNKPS
T8 sequence (Q8N5S9 whole entry): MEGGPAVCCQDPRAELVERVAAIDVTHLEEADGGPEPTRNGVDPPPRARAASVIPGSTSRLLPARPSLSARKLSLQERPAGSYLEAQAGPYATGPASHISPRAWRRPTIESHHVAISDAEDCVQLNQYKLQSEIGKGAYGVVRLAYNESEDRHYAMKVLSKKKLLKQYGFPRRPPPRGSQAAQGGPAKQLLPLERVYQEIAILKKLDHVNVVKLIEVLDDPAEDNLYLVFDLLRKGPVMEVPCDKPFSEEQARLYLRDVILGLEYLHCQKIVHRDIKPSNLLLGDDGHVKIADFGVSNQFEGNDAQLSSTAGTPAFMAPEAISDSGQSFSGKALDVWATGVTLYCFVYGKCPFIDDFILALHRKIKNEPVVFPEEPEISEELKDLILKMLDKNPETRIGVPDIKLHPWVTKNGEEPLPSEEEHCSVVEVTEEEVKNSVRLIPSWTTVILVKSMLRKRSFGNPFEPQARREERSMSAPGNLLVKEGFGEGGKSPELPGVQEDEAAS
T6 sequence (P53779 whole entry): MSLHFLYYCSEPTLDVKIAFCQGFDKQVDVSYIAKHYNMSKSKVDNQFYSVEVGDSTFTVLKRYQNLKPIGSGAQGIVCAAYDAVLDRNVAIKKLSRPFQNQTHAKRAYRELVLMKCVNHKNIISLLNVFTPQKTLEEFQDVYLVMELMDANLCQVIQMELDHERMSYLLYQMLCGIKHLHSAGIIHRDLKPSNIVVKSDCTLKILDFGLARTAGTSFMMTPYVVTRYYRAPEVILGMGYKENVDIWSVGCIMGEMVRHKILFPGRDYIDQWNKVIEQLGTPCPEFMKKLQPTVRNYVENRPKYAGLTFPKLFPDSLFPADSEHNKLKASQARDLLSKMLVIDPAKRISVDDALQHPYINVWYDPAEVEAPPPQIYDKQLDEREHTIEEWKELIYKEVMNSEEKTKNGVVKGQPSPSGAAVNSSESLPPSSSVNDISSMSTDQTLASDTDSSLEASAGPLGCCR
T3 sequence (P54764 20-986): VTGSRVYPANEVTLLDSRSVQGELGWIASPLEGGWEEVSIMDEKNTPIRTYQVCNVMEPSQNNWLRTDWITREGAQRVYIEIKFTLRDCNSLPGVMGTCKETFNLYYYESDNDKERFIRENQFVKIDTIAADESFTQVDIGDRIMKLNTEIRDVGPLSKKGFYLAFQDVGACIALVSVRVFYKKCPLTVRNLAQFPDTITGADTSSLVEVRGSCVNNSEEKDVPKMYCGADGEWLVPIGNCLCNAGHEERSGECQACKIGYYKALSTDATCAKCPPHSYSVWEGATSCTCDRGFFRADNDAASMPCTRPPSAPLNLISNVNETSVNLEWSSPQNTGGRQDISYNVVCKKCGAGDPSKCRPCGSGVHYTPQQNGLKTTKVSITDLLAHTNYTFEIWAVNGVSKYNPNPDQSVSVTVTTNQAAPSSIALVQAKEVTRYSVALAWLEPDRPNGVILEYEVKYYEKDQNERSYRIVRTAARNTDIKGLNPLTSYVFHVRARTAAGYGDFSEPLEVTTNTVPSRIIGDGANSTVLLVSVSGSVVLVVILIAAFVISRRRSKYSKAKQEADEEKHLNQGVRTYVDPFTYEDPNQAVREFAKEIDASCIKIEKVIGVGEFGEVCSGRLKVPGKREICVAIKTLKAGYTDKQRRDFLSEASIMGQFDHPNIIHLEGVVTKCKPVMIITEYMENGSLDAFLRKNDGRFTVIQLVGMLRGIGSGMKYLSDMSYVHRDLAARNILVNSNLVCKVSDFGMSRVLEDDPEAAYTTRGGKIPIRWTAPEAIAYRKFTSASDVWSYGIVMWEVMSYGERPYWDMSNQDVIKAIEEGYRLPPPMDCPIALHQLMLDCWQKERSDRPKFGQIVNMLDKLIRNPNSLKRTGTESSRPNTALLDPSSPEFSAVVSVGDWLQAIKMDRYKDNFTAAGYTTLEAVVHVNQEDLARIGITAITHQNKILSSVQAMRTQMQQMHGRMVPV
T4 sequence (Q13164 whole entry): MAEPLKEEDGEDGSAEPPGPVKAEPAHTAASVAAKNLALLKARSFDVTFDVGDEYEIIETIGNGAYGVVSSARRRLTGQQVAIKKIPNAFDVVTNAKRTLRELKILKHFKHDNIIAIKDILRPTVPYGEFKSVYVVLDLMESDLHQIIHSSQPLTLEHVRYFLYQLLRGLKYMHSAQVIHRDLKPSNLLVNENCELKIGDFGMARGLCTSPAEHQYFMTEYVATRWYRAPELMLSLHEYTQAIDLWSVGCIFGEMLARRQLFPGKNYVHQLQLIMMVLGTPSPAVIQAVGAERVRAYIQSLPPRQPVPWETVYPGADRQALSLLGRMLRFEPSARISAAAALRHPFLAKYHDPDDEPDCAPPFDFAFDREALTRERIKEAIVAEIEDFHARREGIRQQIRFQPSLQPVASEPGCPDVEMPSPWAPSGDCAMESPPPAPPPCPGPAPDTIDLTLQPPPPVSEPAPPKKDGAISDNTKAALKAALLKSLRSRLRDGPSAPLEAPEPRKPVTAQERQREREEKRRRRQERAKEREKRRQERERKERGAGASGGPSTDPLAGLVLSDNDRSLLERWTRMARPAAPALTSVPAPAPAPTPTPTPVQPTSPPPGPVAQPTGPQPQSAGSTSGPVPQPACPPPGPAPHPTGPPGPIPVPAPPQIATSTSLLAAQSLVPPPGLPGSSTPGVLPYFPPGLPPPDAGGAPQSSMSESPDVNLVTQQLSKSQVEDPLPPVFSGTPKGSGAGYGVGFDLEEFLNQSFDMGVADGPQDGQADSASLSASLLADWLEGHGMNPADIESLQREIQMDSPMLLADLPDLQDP

C=CC(=O)Nc1cccc(Nc2nc(Nc3ccc(OCCOC)c(F)c3)ncc2F)c1 [Compound 2]
inhibition at 3 µM [1]: 2.41%
remaining activity at 3 µM [1, 10]: 99.2%
remaining activity at 3 µM [1, 11]: 95.9%
inhibition at 3 µM [2]: 30.1%
remaining activity at 3 µM [2, 10]: 71.6%
remaining activity at 3 µM [2, 11]: 68.1%
inhibition at 3 µM [3]: 9.09%
remaining activity at 3 µM [3, 10]: 92.9%
remaining activity at 3 µM [3, 11]: 89%
inhibition at 3 µM [4]: -0.37%
remaining activity at 3 µM [4, 10]: 101%
remaining activity at 3 µM [4, 11]: 99.9%
inhibition at 3 µM [5]: -1.88%
remaining activity at 3 µM [5, 10]: 102%
remaining activity at 3 µM [5, 11]: 101%
inhibition at 3 µM [6]: -12.8%
remaining activity at 3 µM [6, 10]: 110%
remaining activity at 3 µM [6, 11]: 116%
inhibition at 3 µM [7]: -11.6%
remaining activity at 3 µM [7, 10]: 110%
remaining activity at 3 µM [7, 11]: 113%
inhibition at 3 µM [8]: 9.31%
remaining activity at 3 µM [8, 10]: 93.5%
remaining activity at 3 µM [8, 11]: 87.9%
inhibition at 3 µM [9]: -1.96%
remaining activity at 3 µM [9, 10]: 102%
remaining activity at 3 µM [9, 11]: 102%
